Reference: PubChem BioAssay (NCI)
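Where inhibition never reached the appropriate level, the endpoint shown equals the highest concentration tested. Otherwise, values were interpolated linearly from a five-concentration, 48-hour dose response in 96-well plates. TGI denotes the concentration required for complete inhibition of growth.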

Experiments:
Experiment in all cases: NCI tumour cell line growth inhibition, 48 h
786-0 renal = system: 786-0 renal
A498 renal = system: A498 renal
A549 NSCLC = system: A549 NSCLC
ACHN renal = system: ACHN renal
BT-549 breast = system: BT-549 breast
CAKI-1 renal = system: CAKI-1 renal
CCRF-CEM leukemia = system: CCRF-CEM leukemia
COLO 205 colon = system: COLO 205 colon
DU-145 prostate = system: DU-145 prostate
EKVX NSCLC = system: EKVX NSCLC
HCC-2998 colon = system: HCC-2998 colon
HCT-116 colon = system: HCT-116 colon
HCT-15 colon = system: HCT-15 colon
HL-60(TB) leukemia = system: HL-60(TB) leukemia
HOP-62 NSCLC = system: HOP-62 NSCLC
HOP-92 NSCLC = system: HOP-92 NSCLC
HS 578T breast = system: HS 578T breast
HT29 colon = system: HT29 colon
IGROV1 ovarian = system: IGROV1 ovarian
K-562 leukemia = system: K-562 leukemia
KM12 colon = system: KM12 colon
LOX IMVI melanoma = system: LOX IMVI melanoma
M14 melanoma = system: M14 melanoma
MALME-3M melanoma = system: MALME-3M melanoma
MCF7 breast = system: MCF7 breast
MDA-MB-231 breast = system: MDA-MB-231 breast
MDA-MB-435 = system: MDA-MB-435
MDA-N = system: MDA-N
MOLT-4 leukemia = system: MOLT-4 leukemia
NCI-H226 lung = system: NCI-H226 lung
NCI-H23 lung = system: NCI-H23 lung
NCI-H460 lung = system: NCI-H460 lung
NCI-H522 lung = system: NCI-H522 lung
NCI/ADR-RES ovarian = system: NCI/ADR-RES ovarian
OVCAR-3 ovarian = system: OVCAR-3 ovarian
OVCAR-4 ovarian = system: OVCAR-4 ovarian
OVCAR-5 ovarian = system: OVCAR-5 ovarian
OVCAR-8 ovarian = system: OVCAR-8 ovarian
PC-3 prostate = system: PC-3 prostate
RPMI-8226 leukemia = system: RPMI-8226 leukemia
RXF 393 renal = system: RXF 393 renal
SF-268 CNS = system: SF-268 CNS
SF-295 CNS = system: SF-295 CNS
SF-539 CNS = system: SF-539 CNS
SK-MEL-2 melanoma = system: SK-MEL-2 melanoma
SK-MEL-28 melanoma = system: SK-MEL-28 melanoma
SK-MEL-5 melanoma = system: SK-MEL-5 melanoma
SK-OV-3 ovarian = system: SK-OV-3 ovarian
SN12C renal = system: SN12C renal
SNB-19 CNS = system: SNB-19 CNS
SNB-75 CNS = system: SNB-75 CNS
SW-620 colon = system: SW-620 colon
T-47D breast = system: T-47D breast
TK-10 renal = system: TK-10 renal
U251 CNS = system: U251 CNS
UACC-257 melanoma = system: UACC-257 melanoma
UACC-62 melanoma = system: UACC-62 melanoma
UO-31 renal = system: UO-31 renal
SR leukemia = system: SR leukemia

O=C1c2ccccc2C(=O)c2c(NCC3CO3)cccc21 (stereo not given)
TGI (786-0 renal): > 47.9 µM | TGI (A498 renal): > 100 µM | TGI (A549 NSCLC): > 100 µM | TGI (ACHN renal): 31.4 µM | TGI (BT-549 breast): 66.8 µM | TGI (CAKI-1 renal): 77.3 µM | TGI (CCRF-CEM leukemia): 7.71 µM | TGI (COLO 205 colon): > 100 µM | TGI (DU-145 prostate): > 34.3 µM | TGI (EKVX NSCLC): > 57.6 µM | TGI (HCC-2998 colon): > 100 µM | TGI (HCT-116 colon): 17.6 µM | TGI (HCT-15 colon): 32 µM | TGI (HL-60(TB) leukemia): 15.8 µM | TGI (HOP-62 NSCLC): > 100 µM | TGI (HOP-92 NSCLC): > 100 µM | TGI (HS 578T breast): > 100 µM | TGI (HT29 colon): > 86 µM | TGI (IGROV1 ovarian): > 60.3 µM | TGI (K-562 leukemia): 17.3 µM | TGI (KM12 colon): > 76.3 µM | TGI (LOX IMVI melanoma): 5.38 µM | TGI (M14 melanoma): 27.6 µM | TGI (MALME-3M melanoma): > 100 µM | TGI (MCF7 breast): 7.14 µM | TGI (MDA-MB-231 breast): > 75 µM | TGI (MDA-MB-435): 20 µM | TGI (MDA-N): 23.7 µM | TGI (MOLT-4 leukemia): 14.7 µM | TGI (NCI-H226 lung): > 100 µM | TGI (NCI-H23 lung): > 40.4 µM | TGI (NCI-H460 lung): > 100 µM | TGI (NCI-H522 lung): > 100 µM | TGI (NCI/ADR-RES ovarian): 38 µM | TGI (OVCAR-3 ovarian): > 45.8 µM | TGI (OVCAR-4 ovarian): > 100 µM | TGI (OVCAR-5 ovarian): > 100 µM | TGI (OVCAR-8 ovarian): 24.8 µM | TGI (PC-3 prostate): > 57 µM | TGI (RPMI-8226 leukemia): > 85 µM | TGI (RXF 393 renal): 20.6 µM | TGI (SF-268 CNS): 17.9 µM | TGI (SF-295 CNS): > 100 µM | TGI (SF-539 CNS): > 100 µM | TGI (SK-MEL-2 melanoma): 32 µM | TGI (SK-MEL-28 melanoma): > 63.7 µM | TGI (SK-MEL-5 melanoma): > 95.7 µM | TGI (SK-OV-3 ovarian): > 100 µM | TGI (SN12C renal): 20.1 µM | TGI (SNB-19 CNS): > 100 µM | TGI (SNB-75 CNS): > 100 µM | TGI (SW-620 colon): 12.7 µM | TGI (T-47D breast): > 100 µM | TGI (TK-10 renal): > 100 µM | TGI (U251 CNS): > 100 µM | TGI (UACC-257 melanoma): > 100 µM | TGI (UACC-62 melanoma): > 45.9 µM | TGI (UO-31 renal): 22.5 µM

CP(=O)(O)C(N)c1ccccc1 (stereo not given)
TGI (786-0 renal): > 100 µM | TGI (A549 NSCLC): > 100 µM | TGI (ACHN renal): > 100 µM | TGI (BT-549 breast): > 100 µM | TGI (CAKI-1 renal): > 100 µM | TGI (CCRF-CEM leukemia): > 100 µM | TGI (COLO 205 colon): > 100 µM | TGI (DU-145 prostate): > 100 µM | TGI (EKVX NSCLC): > 100 µM | TGI (HCT-116 colon): > 100 µM | TGI (HCT-15 colon): > 100 µM | TGI (HL-60(TB) leukemia): > 100 µM | TGI (HOP-62 NSCLC): > 100 µM | TGI (HOP-92 NSCLC): > 100 µM | TGI (HS 578T breast): > 100 µM | TGI (HT29 colon): > 100 µM | TGI (IGROV1 ovarian): > 100 µM | TGI (K-562 leukemia): > 100 µM | TGI (KM12 colon): > 100 µM | TGI (LOX IMVI melanoma): > 100 µM | TGI (M14 melanoma): > 100 µM | TGI (MALME-3M melanoma): > 100 µM | TGI (MCF7 breast): > 100 µM | TGI (MDA-MB-435): > 100 µM | TGI (MDA-N): > 100 µM | TGI (MOLT-4 leukemia): > 100 µM | TGI (NCI-H226 lung): > 100 µM | TGI (NCI-H23 lung): > 100 µM | TGI (NCI-H460 lung): > 100 µM | TGI (NCI-H522 lung): > 100 µM | TGI (NCI/ADR-RES ovarian): > 100 µM | TGI (OVCAR-3 ovarian): > 100 µM | TGI (OVCAR-4 ovarian): > 100 µM | TGI (OVCAR-5 ovarian): > 100 µM | TGI (OVCAR-8 ovarian): > 100 µM | TGI (PC-3 prostate): > 100 µM | TGI (RPMI-8226 leukemia): > 100 µM | TGI (SF-268 CNS): > 100 µM | TGI (SF-295 CNS): > 100 µM | TGI (SK-MEL-28 melanoma): > 100 µM | TGI (SK-MEL-5 melanoma): > 100 µM | TGI (SK-OV-3 ovarian): > 100 µM | TGI (SN12C renal): > 100 µM | TGI (SNB-19 CNS): > 100 µM | TGI (SR leukemia): > 100 µM | TGI (SW-620 colon): > 100 µM | TGI (T-47D breast): > 100 µM | TGI (TK-10 renal): > 100 µM | TGI (U251 CNS): > 100 µM | TGI (UACC-257 melanoma): > 100 µM | TGI (UACC-62 melanoma): > 100 µM | TGI (UO-31 renal): > 100 µM
